The source of these data is publication PMC9421653 (Journal of Medicinal Chemistry, 2022).

A value given as a limit tells only on which side of the number the result lay.

In the assay the target is T1, human GPR84 (Homo sapiens, UniProt P04899+Q9NQS5).
T1 construct: expressed in transfected cells; host or cells: Flp-In T-REx 293 cells, doxycycline-induced; membrane preparations
T1 sequence (Q9NQS5+P04899 fused): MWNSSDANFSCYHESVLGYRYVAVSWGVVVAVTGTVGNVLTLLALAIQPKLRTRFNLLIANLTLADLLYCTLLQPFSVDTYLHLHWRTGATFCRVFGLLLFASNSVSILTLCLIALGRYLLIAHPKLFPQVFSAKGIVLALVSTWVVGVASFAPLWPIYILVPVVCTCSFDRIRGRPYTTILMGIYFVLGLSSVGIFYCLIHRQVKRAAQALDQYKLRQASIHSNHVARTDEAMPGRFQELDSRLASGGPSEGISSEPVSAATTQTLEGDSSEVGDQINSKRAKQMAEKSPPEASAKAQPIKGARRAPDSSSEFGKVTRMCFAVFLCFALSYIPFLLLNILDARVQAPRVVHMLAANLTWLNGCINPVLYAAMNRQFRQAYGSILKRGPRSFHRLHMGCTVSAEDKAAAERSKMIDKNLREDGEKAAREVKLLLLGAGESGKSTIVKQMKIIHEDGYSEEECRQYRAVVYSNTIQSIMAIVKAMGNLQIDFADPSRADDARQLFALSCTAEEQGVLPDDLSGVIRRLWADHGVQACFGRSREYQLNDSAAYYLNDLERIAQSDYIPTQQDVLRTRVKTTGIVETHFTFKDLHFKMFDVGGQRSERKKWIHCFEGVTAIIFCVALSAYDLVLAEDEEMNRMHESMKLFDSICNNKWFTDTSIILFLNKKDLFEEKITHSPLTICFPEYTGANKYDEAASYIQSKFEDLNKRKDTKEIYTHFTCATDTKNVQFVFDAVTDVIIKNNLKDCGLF
As to the kind of experiment: biochemical. Format: biochemical. Conditions: [35S]GTPγS assay; negative log of the IC50 in molar; mean ± SEM.
“3-((5-Phenyl-6-(pyrimidin-2-yl)-1,2,4-triazin-3-yl)methyl)-1H-indole or 3-((6-phenyl-5-(pyrimidin-2-yl)-1,2,4-triazin-3-yl)methyl)-1H-indole [Compound 32]”: the “GTPγS (pIC50)” value turned out to be 6.58 ± 0.08. As for `Fc1ccc(-c2nnc(Cc3c[nH]c4ccccc34)nc2-c2ccc(F)cc2)cc1` [Compound 5, 3-((5,6-Bis(4-fluorophenyl)-1,2,4-triazin-3-yl)methyl)-1H-indole], the figure is 7.81 ± 0.04. Regarding `Brc1ccc(-c2nnc(Cc3c[nH]c4ccccc34)nc2-c2ccc(Br)cc2)cc1` [Compound 7, 3-((5,6-Bis(4-bromophenyl)-1,2,4-triazin-3-yl)methyl)-1H-indole], the “GTPγS (pIC50)” value is 7.60 ± 0.02. The result for `c1ccc(-c2nnc(Cc3c[nH]c4ccccc34)nc2-c2ccccn2)nc1` [Compound 8, 3-((5,6-Di(pyridin-2-yl)-1,2,4-triazin-3-yl)methyl)-1H-indole] reads 5.70 ± 0.21; that for `CC(C)c1nnc(Cc2c[nH]c3ccccc23)nc1C(C)C` [Compound 9, 3-((5,6-Diisopropyl-1,2,4-triazin-3-yl)methyl)-1H-indole], 5.38 ± 0.05. Consider `COC(=O)c1ccc(-c2nnc(Cc3c[nH]c4ccccc34)nc2-c2ccc(C(=O)OC)cc2)cc1` [Compound 10, Methyl 4-[3-(1H-Indol-3-ylmethyl)-6-(4-methoxycarbonylphenyl)-1,2,4-triazin-5-yl]benzoate], for which the “GTPγS (pIC50)” value came to 6.67 ± 0.08. Consider `c1csc(-c2nnc(Cc3c[nH]c4ccccc34)nc2-c2cccs2)c1` [Compound 11, 3-((5,6-Di(thiophen-2-yl)-1,2,4-triazin-3-yl)methyl)-1H-indole], for which the “GTPγS (pIC50)” value was 7.62 ± 0.05. As to `COc1ccc(-c2nnc(Cc3c[nH]c4ccc(F)cc34)nc2-c2ccc(OC)cc2)cc1` [Compound 12, 3-((5,6-Bis(4-methoxyphenyl)-1,2,4-triazin-3-yl)methyl)-5-fluoro-1H-indole], the “GTPγS (pIC50)” value was found to be 6.92 ± 0.07. The result for `COc1ccc(-c2nnc(Cc3cn(C)c4ccccc34)nc2-c2ccc(OC)cc2)cc1` [Compound 13, 3-((5,6-Bis(4-methoxyphenyl)-1,2,4-triazin-3-yl)methyl)-1-methyl-1H-indole] reads under 4.70; that for `COc1ccc(-c2nnc(Cc3n[nH]c4ccccc34)nc2-c2ccc(OC)cc2)cc1` [Compound 14, 3-((5,6-Bis(4-methoxyphenyl)-1,2,4-triazin-3-yl)methyl)-1H-indazole], 6.67 ± 0.03; that for `Fc1ccc2c(Cc3nnc(-c4ccccc4)c(-c4ccccc4)n3)c[nH]c2c1` [Compound 15, 3-((5,6-Diphenyl-1,2,4-triazin-3-yl)methyl)-6-fluoro-1H-indole], 6.65 ± 0.03. As for `Cc1ccc2c(Cc3nnc(-c4ccccc4)c(-c4ccccc4)n3)c[nH]c2c1` [Compound 16, 3-((5,6-Diphenyl-1,2,4-triazin-3-yl)methyl)-6-methyl-1H-indole], the “GTPγS (pIC50)” value is given as under 4.70. In the case of `c1ccc(-c2nnc(Cc3cnc4ccccn34)nc2-c2ccccc2)cc1` [Compound 20, 3-((5,6-Diphenyl-1,2,4-triazin-3-yl)methyl)imidazo[1,2-a]pyridine], the “GTPγS (pIC50)” value is 5.44 ± 0.09. As for `CCCCCc1nnc(-c2ccccc2)c(-c2ccccc2)n1` [Compound 21, 3-Pentyl-5,6-diphenyl-1,2,4-triazine], the figure is 5.12 ± 0.05; as for `c1ccc(-c2nnc(CCc3cccnc3)nc2-c2ccccc2)cc1` [Compound 22, 5,6-Diphenyl-3-(2-(pyridin-3-yl)ethyl)-1,2,4-triazine], 5.00 ± 0.17; as for `Cc1cc(Cc2nnc(-c3ccccc3)c(-c3ccccc3)n2)n[nH]1` [Compound 23, 3-((5-Methyl-1H-pyrazol-3-yl)methyl)-5,6-diphenyl-1,2,4-triazine], 4.97 ± 0.23. Turning to `c1ccc(-c2nnc(NCc3cccnc3)nc2-c2ccccc2)cc1` [Compound 24, 5,6-Diphenyl-N-(pyridin-3-ylmethyl)-1,2,4-triazin-3-amine], the “GTPγS (pIC50)” value is 5.47 ± 0.05. As for `Cc1cc(Nc2nnc(-c3ccccc3)c(-c3ccccc3)n2)n[nH]1` [Compound 25, N-(5-Methyl-1H-pyrazol-3-yl)-5,6-diphenyl-1,2,4-triazin-3-amine], the figure is under 4.70; as for `FC(F)(F)Oc1ccccc1-c1cnnc(Cc2c[nH]c3ccccc23)n1` [Compound 26, 3-((5-(2-(Trifluoromethoxy)phenyl)-1,2,4-triazin-3-yl)methyl)-1H-indole], under 4.70; as for `FC(F)(F)Oc1ccccc1-c1cnc(Cc2c[nH]c3ccccc23)nn1` [Compound 27, 3-((6-(2-(Trifluoromethoxy)phenyl)-1,2,4-triazin-3-yl)methyl)-1H-indole], 5.59 ± 0.13.

Regarding `c1ccc(-c2nc(Cc3c[nH]c4ccccc34)nnc2-c2cccnn2)cc1` [Compound 31, 3-((5-Phenyl-6-(pyridazin-3-yl)-1,2,4-triazin-3-yl)methyl)-1H-indole], the “GTPγS (pIC50)” value turned out to be 6.85 ± 0.03. The result for `CNS(=O)(=O)c1ccc(-c2nc(Cc3c[nH]c4ccccc34)nnc2-c2ccccc2)cc1` [Compound 33, 4-(3-((1H-Indol-3-yl)methyl)-6-phenyl-1,2,4-triazin-5-yl)-N-methylbenzenesulfonamide] reads 6.49 ± 0.05.

`CS(=O)(=O)c1ccc(-c2nnc(Cc3c[nH]c4ccccc34)nc2-c2ccccc2)cc1` [Compound 36, 3-((6-(4-(Methylsulfonyl)phenyl)-5-phenyl-1,2,4-triazin-3-yl)methyl)-1H-indole]: the “GTPγS (pIC50)” value stood at 6.18 ± 0.04.

`CC(=O)OCc1ccc(-c2nc(Cc3c[nH]c4ccccc34)nnc2-c2ccccc2)cc1` [Compound 37, 4-(3-((1H-Indol-3-yl)methyl)-6-phenyl-1,2,4-triazin-5-yl)benzyl Acetate]: the “GTPγS (pIC50)” value was 8.30 ± 0.35. As for `CC(=O)OCc1ccc(-c2nnc(Cc3c[nH]c4ccccc34)nc2-c2ccccc2)cc1` [Compound 38, 4-(3-((1H-Indol-3-yl)methyl)-5-phenyl-1,2,4-triazin-6-yl)benzyl Acetate], the figure is 8.06 ± 0.27; as for `OCc1ccc(-c2nc(Cc3c[nH]c4ccccc34)nnc2-c2ccccc2)cc1` [Compound 39, (4-(3-((1H-Indol-3-yl)methyl)-6-phenyl-1,2,4-triazin-5-yl)phenyl)methanol], 7.16 ± 0.04; as for `OCc1ccc(-c2nnc(Cc3c[nH]c4ccccc34)nc2-c2ccccc2)cc1` [Compound 40, (4-(3-((1H-Indol-3-yl)methyl)-5-phenyl-1,2,4-triazin-6-yl)phenyl)methanol], 7.76 ± 0.06. `c1ccc(-c2nnc(Cc3c[nH]c4ccccc34)nc2-c2ccc(CN3CCOCC3)cc2)cc1` [Compound 41, 4-(4-(3-((1H-Indol-3-yl)methyl)-6-phenyl-1,2,4-triazin-5-yl)benzyl)morpholine]: the “GTPγS (pIC50)” value is listed as 7.51 ± 0.28. As for `CN(C)Cc1ccc(-c2nc(Cc3c[nH]c4ccccc34)nnc2-c2ccccc2)cc1` [Compound 43, 1-(4-(3-((1H-Indol-3-yl)methyl)-6-phenyl-1,2,4-triazin-5-yl)phenyl)-N,N-dimethylmethanamine], the figure is 6.20 ± 0.05.
